We go through 2 compounds from patent US9758561B2 (priority 2014, dated 2017).

Values after ≈ are worked out from the molar mass of the structure shown. Where two headings read alike, the source gives them in different places.

The EC50 is the concentration needed to bring the measured effect to its halfway point. What is called solubility is the dissolved amount per volume that the medium holds.

In one data set the target is T1, human GLP-1 receptor (Homo sapiens, UniProt P43220).
T1 construct: expressed in transfected cells; host or cells: HEK-293
The data set can be described thus: cAMP response of HEK-293 cells stably expressing human GLP-1 receptor (HTRF). Type of data set: cell-based. To be noted: Table 6; read-out: EC50 hGLP-1R. The essentials:
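HEK-293 cells stably expressing the receptor were taken up in HBSS/20 mM HEPES/0.1% BSA with 2 mM IBMX at 400000 cells/ml. They were exposed to increasing concentrations of peptide for 30 minutes at room temperature, and formed cAMP was measured by HTRF.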

For a further data set, the target named is T2, human glucagon receptor (Homo sapiens, UniProt P47871).
T2 construct: expressed in transfected cells; host or cells: HEK-293
The data set can be described thus: cAMP response of HEK-293 cells stably expressing human glucagon receptor (HTRF). To be noted: Table 6; read-out: EC50 hGlucagon-R. Type of data set: cell-based. As for the experimental part: (§1) For preparation, cells were split into T175 culture flasks and grown overnight to near confluency in medium (DMEM/10% FBS). Medium was then removed and cells washed with PBS lacking calcium and magnesium, followed by proteinase treatment with accutase (Sigma-Aldrich cat. no. A6964). Detached cells were washed and resuspended in assay buffer (1×HBSS; 20 mM HEPES, 0.1% BSA, 2 mM IBMX) and cellular density determined. They were then diluted to 400000 cells/ml and 25 μl-aliquots dispensed into the wells of 96-well plates. For measurement, 25 μl of test compound in assay buffer was added to the wells, followed by incubation for 30 minutes at room temperature. […] Potencies of peptidic compounds at the GLP-1, glucagon and GIP receptors were determined by exposing cells expressing human glucagon receptor (hGlucagon R), human GIP receptor (hGIP-R) or human GLP-1 receptor (hGLP-1R) to the listed compounds at increasing concentrations and measuring the formed cAMP as described in Methods.
Background: TR-FRET usually uses a lanthanide donor and a delayed reading to cut background.

A further data set deals with T3, human GIP receptor (Homo sapiens, UniProt P48546).
T3 construct: expressed in transfected cells; host or cells: HEK-293
T3 sequence (P48546 22-466): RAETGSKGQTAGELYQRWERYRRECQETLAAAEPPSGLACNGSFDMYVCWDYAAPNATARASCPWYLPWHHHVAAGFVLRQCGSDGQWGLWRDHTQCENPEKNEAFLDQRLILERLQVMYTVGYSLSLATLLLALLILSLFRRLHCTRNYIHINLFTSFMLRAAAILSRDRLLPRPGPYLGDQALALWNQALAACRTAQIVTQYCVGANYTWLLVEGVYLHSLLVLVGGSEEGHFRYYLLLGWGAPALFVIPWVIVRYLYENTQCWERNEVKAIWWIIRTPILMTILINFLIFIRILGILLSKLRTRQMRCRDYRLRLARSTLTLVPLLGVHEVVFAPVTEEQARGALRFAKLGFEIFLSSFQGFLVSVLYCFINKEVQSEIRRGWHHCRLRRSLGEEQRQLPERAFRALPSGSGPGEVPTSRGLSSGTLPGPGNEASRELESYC
As to the kind of experiment: cAMP response of HEK-293 cells stably expressing human GIP receptor (HTRF). It is filed as cell-based. To be noted: Table 6; read-out: EC50 hGIP-R. As for the experimental part:
as §1

Data set [1] can be described thus: Solubility testing in buffer (HPLC-UV). It is filed as physicochemical. As for the experimental part: Prior to the testing of solubility and stability of a peptide batch, its purity (HPLC-UV) was determined. […] Therefore, solutions from solid samples were prepared in different buffer systems with a concentration of 10 mg/mL compound based on the previously determined % purity. HPLC-UV was performed after 2 h of gentle agitation from the supernatant, which was obtained by 20 min of centrifugation at 4500 rpm. […] This analysis also served as starting point (t0) for the stability testing.

A short description of data set [2]: Stability testing in solution, 7 days at 40° C. (HPLC-UV). To be noted: for Stability pH 4.5: pH 4.5, 7 days at 40° C. in solution; for Stability pH 7.4: pH 7.4, 7 days at 40° C. in solution. It is filed as physicochemical. The method, then: After that time course, the sample was centrifuged for 20 min at 4500 rpm and 0.2 μL of the supernatant were analysed with HPLC-UV.
For determination of the amount of the remaining peptide, the peak areas of the target compound at t0 and t7 were compared, resulting in “% remaining peptide”, following the equation % remaining peptide=[(peak area peptide t7)×100]/peak area peptide t0.
The stability is expressed as “% remaining peptide”.

In data set [3] the test system is female diet-induced obese (DIO) C57BL/6 mice. The data set can be described thus: Chronic effect on body weight and body fat in female DIO C57BL/6 mice. It is filed as in vivo. Particulars: 50 μg/kg bid s.c., 4 weeks; for Body fat change / Overall weight change: Table 10 (Example 7), mean ± SEM; for Body fat change: NMR. As for the experimental part:
C57BL/6 Harlan mice are housed in groups in a specific pathogen-free barrier facility on a 12 h light/dark cycle with free access to water and standard or high-fat diet. After prefeeding on high-fat diet, mice are stratified to treatment groups (n=8), so that each group has similar mean body weight. An age-matched group with ad-libitum access to standard chow is included as standard control group. Before the experiment, mice are subcutaneously (s.c.) injected with vehicle solution and weighed for 3 days to acclimate them to the procedures.
Body weight is recorded daily. Two days before start of treatment and on day 26, total fat mass is measured by nuclear magnetic resonance (NMR).
Statistical analyses are performed with Everstat 6.0 by repeated measures two-way ANOVA and Dunnetts post-hoc analyses (glucose profile) and 1-way-ANOVA, followed by Dunnetts post-hoc test (body weight, body fat). Differences versus vehicle-treated DIO control mice are considered statistically significant at the p<0.05 level.
Female obese C57BL/6 mice were treated for 4 weeks twice daily subcutaneously with 50 μg/kg SEQ ID NO: 6, 50 μg/kg SEQ ID NO: 7 or vehicle. Body weight was recorded daily, and body fat content was determined before the start and after 4 weeks of treatment. […] These changes resulted from a decrease in body fat, as shown by the absolute changes in body fat content (Table 10, FIG. 3).
Female obese C57BL/6 mice were treated for 4 weeks twice daily subcutaneously with 50 μg/kg SEQ ID NO: 9 or vehicle. Body weight was recorded daily, and body fat content was determined before the start and after 4 weeks of treatment.

The mark [4] stands for this setting: pH 4.5, target concentration 10 mg/ml, read-out: solubility pH 4.5.
Setting [5] is: pH 7.4, target concentration 10 mg/ml, read-out: solubility pH 7.4.

T1 sequence (P43220 24-463): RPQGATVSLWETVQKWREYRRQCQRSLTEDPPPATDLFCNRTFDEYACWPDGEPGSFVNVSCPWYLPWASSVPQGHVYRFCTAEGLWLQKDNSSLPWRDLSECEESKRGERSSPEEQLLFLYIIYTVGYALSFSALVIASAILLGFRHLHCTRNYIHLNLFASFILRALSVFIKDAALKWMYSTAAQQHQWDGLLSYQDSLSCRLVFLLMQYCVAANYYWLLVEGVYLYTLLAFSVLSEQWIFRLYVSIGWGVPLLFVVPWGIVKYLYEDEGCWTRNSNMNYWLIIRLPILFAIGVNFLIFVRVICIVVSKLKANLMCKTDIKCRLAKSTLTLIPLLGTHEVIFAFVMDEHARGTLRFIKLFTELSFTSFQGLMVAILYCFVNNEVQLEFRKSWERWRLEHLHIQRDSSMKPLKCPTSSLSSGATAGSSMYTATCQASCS
T2 sequence (P47871 26-477): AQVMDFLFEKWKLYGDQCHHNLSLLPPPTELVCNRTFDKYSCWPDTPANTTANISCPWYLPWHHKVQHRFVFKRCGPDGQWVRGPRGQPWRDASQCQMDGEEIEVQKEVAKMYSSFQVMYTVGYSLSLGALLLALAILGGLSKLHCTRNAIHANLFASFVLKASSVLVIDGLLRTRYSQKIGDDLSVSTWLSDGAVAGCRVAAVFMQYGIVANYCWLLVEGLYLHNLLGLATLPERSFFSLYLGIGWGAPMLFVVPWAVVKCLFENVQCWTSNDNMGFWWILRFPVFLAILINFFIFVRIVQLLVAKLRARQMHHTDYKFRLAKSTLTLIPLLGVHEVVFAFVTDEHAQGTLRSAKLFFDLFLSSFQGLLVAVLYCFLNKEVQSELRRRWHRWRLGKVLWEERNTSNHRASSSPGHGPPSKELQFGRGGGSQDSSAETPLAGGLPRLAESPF

For the compound `CCCCCCCCCCCCCCCC(=O)N[C@@H](CCC(=O)N[C@@H](CCC(=O)NCCCC[C@H](NC(=O)[C@H](CCC(N)=O)NC(=O)[C@H](CCCCN)NC(=O)[C@H](CO)NC(=O)[C@H](CC(C)C)NC(=O)[C@H](CC(=O)O)NC(=O)[C@H](CO)NC(=O)[C@@H](NC(=O)[C@H](Cc1ccccc1)NC(=O)[C@@H](NC(=O)CNC(=O)[C@H](Cc1c[nH]cn1)NC(=O)[C@@H](CO)NC(=O)[C@@H](N)Cc1c[nH]cn1)[C@@H](C)O)[C@@H](C)O)C(=O)N[C@@H](CCC(=O)O)C(=O)N[C@@H](CCC(=O)O)C(=O)N[C@@H](CCC(=O)O)C(=O)N[C@@H](C)C(=O)N[C@@H](C)C(=O)N[C@@H](CCCNC(=N)N)C(=O)N[C@@H](CC(C)C)C(=O)N[C@@H](Cc1ccccc1)C(=O)N[C@H](C(=O)N[C@@H](CCC(=O)O)C(=O)N[C@@H](Cc1c[nH]c2ccccc12)C(=O)N[C@@H](CC(C)C)C(=O)NC(C)(C)C(=O)N[C@@H](C)C(=O)NCC(=O)NCC(=O)N1CCC[C@H]1C(=O)N[C@@H](CO)C(=O)N[C@@H](CO)C(=O)NCC(=O)N[C@@H](C)C(=O)N1CCC[C@H]1C(=O)N1CCC[C@H]1C(=O)N1CCC[C@H]1C(=O)N[C@@H](CO)C(N)=O)[C@@H](C)CC)C(=O)O)C(=O)O` [SEQ ID NO: 6, H-dSer-H-G-T-F-T-S-D-L-S-K-Q-K(γE-γE-x53)-E-E-E-A-A-R-L-F-I-E-W-L-Aib-A-G-G-P-S-S-G-A-P-P-P-S-NH2], the EC50 on human GLP-1 receptor was 0.0026 nM. Further, the EC50 on human glucagon receptor stood at 0.0177 nM. For the same compound, the EC50 on human GIP receptor is 1.54 nM. The solubility at 2 h in data set [1] (setting [4]) is above 8000 µg/mL. In data set [1] (setting [5]), the solubility at 2 h is above 8000 µg/mL. For the same compound, in data set [2], the “Stability pH 4.5” value is given as 100.0 % remaining peptide and the “Stability pH 7.4” value is given as 92.0 % remaining peptide. In data set [3], the “daily body weight compared to vehicle DIO control mice” value is listed as “decrease in daily body weight”, the Body fat change is -4.64 ± 0.4 g and the Overall weight change was -6.08 ± 0.6 g.
On to `CCCCCCCCCCCCCCCC(=O)N[C@@H](CCC(=O)N[C@@H](CCC(=O)NCCCC[C@H](NC(=O)[C@H](CCC(N)=O)NC(=O)[C@H](CCCCN)NC(=O)[C@H](CO)NC(=O)[C@H](CC(C)C)NC(=O)[C@H](CC(=O)O)NC(=O)[C@H](CO)NC(=O)[C@@H](NC(=O)[C@H](Cc1ccccc1)NC(=O)[C@@H](NC(=O)CNC(=O)[C@H](Cc1c[nH]cn1)NC(=O)[C@@H](CO)NC(=O)[C@@H](N)Cc1c[nH]cn1)[C@@H](C)O)[C@@H](C)O)C(=O)N[C@@H](CC(=O)O)C(=O)N[C@@H](CCC(=O)O)C(=O)N[C@@H](CCC(=O)O)C(=O)N[C@@H](C)C(=O)N[C@@H](C)C(=O)N[C@@H](CCCNC(=N)N)C(=O)N[C@@H](CC(C)C)C(=O)N[C@@H](Cc1ccccc1)C(=O)N[C@H](C(=O)N[C@@H](CCC(=O)O)C(=O)N[C@@H](Cc1c[nH]c2ccccc12)C(=O)N[C@@H](CC(C)C)C(=O)NC(C)(C)C(=O)N[C@@H](C)C(=O)NCC(=O)NCC(=O)N1CCC[C@H]1C(=O)N[C@@H](CO)C(=O)N[C@@H](CO)C(=O)NCC(=O)N[C@@H](C)C(=O)N1CCC[C@H]1C(=O)N1CCC[C@H]1C(=O)N1CCC[C@H]1C(=O)N[C@@H](CO)C(N)=O)[C@@H](C)CC)C(=O)O)C(=O)O` [SEQ ID NO: 7, H-dSer-H-G-T-F-T-S-D-L-S-K-Q-K(γE-γE-x53)-D-E-E-A-A-R-L-F-I-E-W-L-Aib-A-G-G-P-S-S-G-A-P-P-P-S-NH2], for which the EC50 at human GLP-1 receptor was determined as 0.0015 nM. For the same compound, the EC50 at human glucagon receptor is 0.009 nM. For the same compound, the concentration giving a half-maximal response (EC50) at human GIP receptor amounted to 0.908 nM. The solubility at 2 h in data set [1] (setting [4]) was 2200 µg/mL (≈ 479 µM). Moreover, the solubility at 2 h in data set [1] (setting [5]) was above 8000 µg/mL. Besides, in data set [2], the “Stability pH 4.5” value worked out at 100.0 % remaining peptide and the “Stability pH 7.4” value was found to be 90.0 % remaining peptide. Further, in data set [3], the “daily body weight compared to vehicle DIO control mice” value was “decrease in daily body weight”, the Body fat change is -5.12 ± 0.6 g and the Overall weight change is -7.25 ± 0.7 g.
